One molecule from EP4600261A1, “KERATIN YK93-2, AND PREPARATION METHOD THEREFOR, PHARMACEUTICAL COMPOSITION THEREOF AND USE THEREOF” (INSTITUTE OF MATERIA MEDICA, CHINESE ACADEMY OF MEDICAL …, priority 2022, dated 2024) can be followed below.

Counter-ions that a name gives are not always drawn.

The subject of this assay is mouse pain model. Nature of the assay: mouse pain model, acetic acid-induced writhing. Format: in vivo, Male Kunming mice. The conditions noted are these: Tramadol Hydrochloride 50mg/kg, 1% acetic acid intraperitoneally, writhing within 15 minutes. On the procedure: • Animals: Male Kunming mice; • Drugs: Tramadol Hydrochloride Sustained Release Tablets, Glacial acetic acid, YK93-2; • Instruments: electronic balance, timer
• Normal control group; • Positive control group: Tramadol Hydrochloride group; • Protein YK93-2, (2g/kg) group.
Mice in the YK93-2 (2g/kg) group were administered by gavage, while mice in the model group were given an equal volume of CMC-Na once a day for 7 consecutive days. 30 minutes after the last administration, 1% acetic acid was administered intraperitoneally, and the writhing times of mice within 15 minutes was recorded, and the inhibition rate of drug-induced writhing reaction was calculated. The observation criteria were concave abdominal cavity, extended hind limbs, and raised buttocks.
The inhibition rate was calculated by (Mean number of writhing reactions in the normal control group - Mean number of writhing reactions in the treatment group)/Mean number of writhing reactions in the normal control group * 100%.
(Writhing tests count abdominal constrictions after an irritant is injected.)

On to `COc1cccc(C2(O)CCCCC2CN(C)C)c1` (stereo not shown) [Tramadol Hydrochloride], for which the Number of writhing result is reported as “significantly reduced”.
